ChEMBL document CHEMBL1201862, “PubChem BioAssay data set” (2004)
The source made the active and inactive calls.

Legend:
Galanin receptor type 2 = Galanin receptor type 2 (Homo sapiens, UniProt O43603); experiment: Dose Response cell-based high-throughput screening assay to identify antagonists of galanin receptor 2 (GALR2). [Related pubchem assays: 828, 866 ]; type: functional
Jurkat = experiment: blockers of NF-kB activation in T cells – Jurkat, luciferase reporter, luminescence, B- and T-cell, dose response (AID 489004); type: functional, cell-based; conditions: Homo sapiens;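 further: NF-kB luciferase reporter Jurkat cells stimulated with PMA plus ionomycin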
[1] = HEK-293T viability loss, compound-treated – cell-based, uHTS hits, cytotoxicity control for B/T-cell NF-kB inhibitor project, dose response (AID 489019); type: functional;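 further: IC50 reflects cytotoxicity as loss of cell viability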
INS1 = experiment: INS-1E survival protection against cytokine death – cell-based, luminescence, retest, dose response (AID 449756); type: functional; conditions: Rattus norvegicus;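 further: cell death triggered by IL-1 beta plus TNF-alpha plus IFN-gamma mixture; protective hits raise ATP signal compared with cytokine alone wells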
[2] = reduction of Shn3 3'UTR-driven luciferase in osteoblasts – cell-based, Clone20 osteoblasts, firefly luciferase, cherry-picked, dose response (AID 624132); type: functional;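 further: firefly luciferase luminescence from reporter carrying the Shn3 3'UTR in osteoblasts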
[3] = loss of viability in HepG2 cells – cell-based, CellTiter-Glo, cherry-picked, cytotoxicity control for Shn3 inhibitor project, dose response (AID 624134); type: functional
[4] = non-specific 3'UTR reporter inhibition in Clone20-Shn3RL – cell-based, Renilla luciferase, cherry-picked, counter-screen for Shn3 inhibitor project, dose response (AID 624133); type: functional
Galanin receptor type 3 = Galanin receptor type 3 (Homo sapiens, UniProt O60755); experiment: Fluorescence-based cell-based primary high throughput dose response assay to identify antagonists of the Galanin Receptor 3 (GalR3).; type: functional
Galanin receptor type 3, sequence (O60755 whole entry): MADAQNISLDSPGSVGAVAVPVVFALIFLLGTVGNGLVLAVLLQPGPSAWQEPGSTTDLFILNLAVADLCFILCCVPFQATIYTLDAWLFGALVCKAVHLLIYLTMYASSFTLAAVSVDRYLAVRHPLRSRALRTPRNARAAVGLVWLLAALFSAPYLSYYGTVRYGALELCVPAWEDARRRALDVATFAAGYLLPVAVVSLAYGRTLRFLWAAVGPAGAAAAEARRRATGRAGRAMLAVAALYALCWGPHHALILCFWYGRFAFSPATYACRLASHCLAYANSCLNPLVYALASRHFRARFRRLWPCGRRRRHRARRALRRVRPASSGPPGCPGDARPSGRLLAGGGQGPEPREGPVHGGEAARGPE

cells = type: functional, cell-based; conditions: HEK-CNG
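Wherever EC50 is given: target is galanin receptor GalR3 read with a cAMP biosensor in HEK293 cells.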

Galanin receptor type 2, sequence (O43603 whole entry): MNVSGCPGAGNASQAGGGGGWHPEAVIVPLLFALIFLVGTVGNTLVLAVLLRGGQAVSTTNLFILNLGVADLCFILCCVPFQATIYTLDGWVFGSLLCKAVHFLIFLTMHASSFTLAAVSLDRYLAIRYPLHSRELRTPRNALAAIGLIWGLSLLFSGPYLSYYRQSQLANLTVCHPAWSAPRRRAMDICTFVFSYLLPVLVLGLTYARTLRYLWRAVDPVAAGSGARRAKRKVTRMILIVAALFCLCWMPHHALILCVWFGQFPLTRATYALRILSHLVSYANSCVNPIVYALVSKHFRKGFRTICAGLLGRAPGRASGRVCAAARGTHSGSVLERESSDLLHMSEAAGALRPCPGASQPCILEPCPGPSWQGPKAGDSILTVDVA

## COc1ccc(CCNc2c(C)c(C)nc3ncnn23)cc1
Galanin receptor type 2
  IC50: > 42 µM (not active)
Jurkat
  IC50: > 80 µM (inactive)
[1]
  IC50: > 80 µM (inactive)
INS1
  AC50: 2.57 µM (active)
[2]
  AC50: 0.565 µM (active)
[3]
  AC50: 25.6 µM (active)
[4]
  AC50: < 0.26 µM (active)
Galanin receptor type 3
  IC50: 1.31 µM (active)
cells
  EC50: > 29.9 µM (inactive)
